In article PMC5324278, “Novel synthetic analogues of avian β-defensin-12: the role of charge, hydrophobicity, and disulfide bridges in biological functions” (BMC Microbiology, 2017):
Bridge positions count the residues as written; N and C are the ends. Ends that are not written are not given here.

Tests used:
JAWSII cells = test: MTT cell cytotoxicity assay; type: cell-based, murine; settings: 256 μg/ml; 4, 12, 24 and 48 hours; Student t-test treated vs untreated; n = 3; Figure S1
Description: Chicken macrophage cell lines MQ-NCSU and HD11 were maintained in RPMI-1640 media supplemented with 10% fetal bovine serum (FBS), 2% chicken serum, 100 U/ml penicillin and 100 μg/ml streptomycin (Sigma-Aldrich) at 37 °C in humidified air with 5% CO2. CHO-K1 cells were cultured in the same media without 2% chicken serum. For CCR2-transfected CHO-K1 cells, the medium was supplemented with 500 μg/ml G418 was added (Sigma-Aldrich). Murine immature dendritic cell line JAWSII (ATCC CRL-11904™) was cultured in Alpha minimum essential medium containing 4 mM L-glutamine, 1 mM sodium pyruvate, 5 ng/ml murine Granulocyte macrophage colony-stimulating factor (GM-CSF), 20% FBS, 100 U/ml penicillin and 100 μg/ml streptomycin at 37 °C in humidified air with 5% CO2. The cell cytotoxicity was determined using the MTT (3-(4, 5-dimethylthiazol-2-yl)-2, 5-diphenyltetrazolium bromide metabolic activity assay according to the manufacturer’s instruction (Thermo Fisher Scientific). Briefly, cells (5 × 10^3 cells/well) were seeded in 96-well tissue culture plates, incubated overnight and treated with AvBDs at concentrations of 4, 16, 64 and 256 μg/ml for 4, 12, 24 and 48 h at 37 °C. After treatment, 20 μl of 12 mM MTT solution was added to each well. The plate was incubated for 4 h and read at 540 nm. Viability was expressed as percentage of viable cells relative to the untreated control. […]

[1] = tested on: Escherichia coli (ATCC 25922); type: cell-based; settings: peptide 16 μg/ml; 2 h at 37 °C; 100-fold diluted Mueller Hinton II broth with 5 mM NaCl; colony count; n = 3
Description: (§1) Escherichia coli (ATCC 25922), Pseudomonas aeruginosa (ATCC 27853), Salmonella enteric serovar Typhimurium (ATCC 14028) and Staphylococcus aureus (ATCC 29213) were used to assess the antimicrobial activity of AvBD analogues. All bacterial strains were grown on Luria-Bertani (LB) agar plates or Trypticase Soy Agar with 5% Sheep Blood (TSA, Thermo Fisher Scientific) plates at 37 °C. Antimicrobial activity was determined by a colony counting assay. In brief, bacteria were resuspended in 100-fold diluted Mueller Hinton II broth with 5 mM NaCl (minimal growth medium) to obtain a final bacterial concentration of 2 × 10^5 CFU/ml. Twenty-five microliters of bacterial suspension and 25 μl of AvBD analogue solution were mixed in the wells of a 96-well polypropylene microtiter plate (Nunc™, Thermo Fisher Scientific). The final peptide concentrations were 2, 4, 8, 16, 32, 64 and 128 μg/ml. The minimal growth medium without AvBD peptide was included as a negative control. The bacterial-peptide mixtures were incubated at 37 °C for 2 h, ten-fold serially diluted and plated on LB agar plates. The numbers of bacteria colonies were enumerated after 16 h of incubation at 37 °C. Antimicrobial activity was expressed as percent of killing using the following formula: (CFUcontrol - CFUtreated) / CFUcontrol × 100%. To assess the resistance of AvBD analogues to sodium chloride (NaCl), antimicrobial assays were carried out in the presence of 5 mM, 50 mM, 100 mM or 150 mM NaCl. All assays were performed in triplicate.

[2] = tested on: Salmonella enteric serovar Typhimurium (ATCC 14028); type: cell-based; settings: peptide 16 μg/ml; 2 h at 37 °C; 100-fold diluted Mueller Hinton II broth with 5 mM NaCl; colony count; n = 3
Description: as §1

[3] = tested on: Pseudomonas aeruginosa (ATCC 27853); type: cell-based; settings: peptide 16 μg/ml; 2 h at 37 °C; 100-fold diluted Mueller Hinton II broth with 5 mM NaCl; colony count; n = 3
Description: as §1

[4] = tested on: Staphylococcus aureus (ATCC 29213); type: cell-based; settings: peptide 16 μg/ml; 2 h at 37 °C; 100-fold diluted Mueller Hinton II broth with 5 mM NaCl; colony count; n = 3
Description: as §1

[5] = tested on: S. Typhimurium (ATCC 14028); type: cell-based, Salmonella enteric serovar Typhimurium; settings: triplicate; for MIC-ls S. Typhimurium (ATCC 14028): 100× diluted Muller Hinton II broth, 5 mM NaCl; for MIC-ls S. Typhimurium (ATCC 14028) / MIC S. Typhimurium (ATCC 14028): 5 × 10^5 CFU/ml, 37 °C, 24 h; for MIC S. Typhimurium (ATCC 14028): CLSI, standard Muller Hinton II broth; for MBC-ls S. Typhimurium (ATCC 14028): sub-culture of clear MIC-ls wells on LB agar, lowest concentration inhibiting more than 99% of growth
Description: (§2) The minimum inhibitory concentrations (MIC) of AvBDs were determined according to the guidelines of the Clinical and Laboratory Standards Institute (CLSI). The Muller Hinton II broth used in standard MIC assays contained 20–25 mg/L of calcium and 10–12.5 mg/L of magnesium. Modified MICs of AvBDs were also determined under a low-salt and low-nutrient condition by using 100× diluted Muller Hinton II broth containing 0.2 mg/L of calcium, 0.1 mg/L magnesium and 5 mM (292 mg/L) NaCl. MIC obtained under the low-salt and low-nutrient condition was referred to as MIC-ls. AvBD peptides were two-fold serially diluted (2 to 256 μg/ml) in a 96-well microtiter plate. An equal volume (μl) of bacterial suspension was added to each well of the plate. The final bacterial concentration in the wells was 5 × 10^5 CFU/ml. […] To complement MIC-ls assays, the minimum bactericidal concentrations (MBC) were evaluated by sub-culturing the contents of the first two clear wells obtained in the MIC-ls assay onto LB agar plates. All assays were conducted in triplicate. The lowest peptide concentration inhibiting more than 99% of bacterial growth was defined as MBC-ls. AvBD analogues were regarded as bactericidal if the MBC was no more than four times the MIC [29].

[6] = tested on: P. aeruginosa (ATCC 27853); type: cell-based, Pseudomonas aeruginosa; settings: triplicate; for MIC-ls P. aeruginosa (ATCC 27853): 100× diluted Muller Hinton II broth, 5 mM NaCl; for MIC-ls P. aeruginosa (ATCC 27853) / MIC P. aeruginosa (ATCC 27853): 5 × 10^5 CFU/ml, 37 °C, 24 h; for MIC P. aeruginosa (ATCC 27853): CLSI, standard Muller Hinton II broth; for MBC-ls P. aeruginosa (ATCC 27853): sub-culture of clear MIC-ls wells on LB agar, lowest concentration inhibiting more than 99% of growth
Description: as §2

S. aureus (ATCC 29213) = type: cell-based, Staphylococcus aureus; settings: triplicate; for MIC-ls S. aureus (ATCC 29213): 100× diluted Muller Hinton II broth, 5 mM NaCl; for MIC-ls S. aureus (ATCC 29213) / MIC S. aureus (ATCC 29213): 5 × 10^5 CFU/ml, 37 °C, 24 h; for MIC S. aureus (ATCC 29213): CLSI, standard Muller Hinton II broth; for MBC-ls S. aureus (ATCC 29213): sub-culture of clear MIC-ls wells on LB agar, lowest concentration inhibiting more than 99% of growth
Description: as §2

HD11 cells = test: MTT cell cytotoxicity assay; type: cell-based, chicken; settings: 256 μg/ml; 4, 12, 24 and 48 hours; Student t-test treated vs untreated; n = 3; Figure S1
Description: (§3) Chicken macrophage cell lines MQ-NCSU and HD11 were maintained in RPMI-1640 media supplemented with 10% fetal bovine serum (FBS), 2% chicken serum, 100 U/ml penicillin and 100 μg/ml streptomycin (Sigma-Aldrich) at 37 °C in humidified air with 5% CO2. CHO-K1 cells were cultured in the same media without 2% chicken serum. For CCR2-transfected CHO-K1 cells, the medium was supplemented with 500 μg/ml G418 was added (Sigma-Aldrich). Murine immature dendritic cell line JAWSII (ATCC CRL-11904™) was cultured in Alpha minimum essential medium containing 4 mM L-glutamine, 1 mM sodium pyruvate, 5 ng/ml murine Granulocyte macrophage colony-stimulating factor (GM-CSF), 20% FBS, 100 U/ml penicillin and 100 μg/ml streptomycin at 37 °C in humidified air with 5% CO2. The cell cytotoxicity was determined using the MTT (3-(4, 5-dimethylthiazol-2-yl)-2, 5-diphenyltetrazolium bromide metabolic activity assay according to the manufacturer’s instruction (Thermo Fisher Scientific). Briefly, cells (5 × 10^3 cells/well) were seeded in 96-well tissue culture plates, incubated overnight and treated with AvBDs at concentrations of 4, 16, 64 and 256 μg/ml for 4, 12, 24 and 48 h at 37 °C. After treatment, 20 μl of 12 mM MTT solution was added to each well. The plate was incubated for 4 h and read at 540 nm. Viability was expressed as percentage of viable cells relative to the untreated control. The experiments were performed in triplicate.

MQ-NCSU cells = test: MTT cell cytotoxicity assay; type: cell-based, chicken; settings: 256 μg/ml; 4, 12, 24 and 48 hours; Student t-test treated vs untreated; n = 3; Figure S1
Description: as §3

E. coli (ATCC 25922) = type: cell-based, Escherichia coli; settings: triplicate; for MIC-ls E. coli (ATCC 25922): 100× diluted Muller Hinton II broth, 5 mM NaCl; for MIC-ls E. coli (ATCC 25922) / MIC E. coli (ATCC 25922): 5 × 10^5 CFU/ml, 37 °C, 24 h; for MIC E. coli (ATCC 25922): CLSI, standard Muller Hinton II broth; for MBC-ls E. coli (ATCC 25922): sub-culture of clear MIC-ls wells on LB agar, lowest concentration inhibiting more than 99% of growth
Description: as §2

[7] = tested on: avian and mammalian cell lines; settings: previous findings; cited from earlier work
Description: Data on the highest peptide concentration (256 μg/ml) at various exposure times were presented in Additional file 1: Figure S1. The results were consistent with our previous findings that AvBD-6 and AvBD-12 were non-cytotoxic to avian and mammalian cell lines.

CHO-K1 cells = test: MTT cell cytotoxicity assay; type: cell-based; settings: 256 μg/ml; 4, 12, 24 and 48 hours; Student t-test treated vs untreated; n = 3; Figure S1
Description: as §3

[8] = tested on: mouse immature dendritic JAWSII cells; test: Chemotaxis assay, 48-well microchemotaxis chamber; type: cell-based; settings: Fig. 9; n = 5
Description: Migration of JAWSII and CCR2-CHO-K1 cells in response to AvBD-12 analogues was determined using a 48-well microchemotaxis chamber technique as previously described. Chemotaxis buffer (Minimum Essential Medium containing 0.1% BSA, 100U/ml penicillin, and 100 μg/ml streptomycin) and bacterial peptide N-Formyl-methionyl-leucyl-phenylalanine (fMLF, Sigma-Aldrich) were included as negative and positive controls, respectively. The results were presented as chemotactic index (C.I.). C.I. = number of migrated cells induced by AvBDs / number of migrated cells induced by chemotactic buffer. The assay was repeated five times.

## GPDSCNHDRGLCRVGNCNPGEYLAKYCFEPVILCCKPLSPTPTKT (disulfide 5-34, 12-27, 17-35) [AvBD-12, avian β-defensin-12]
JAWSII cells
  metabolic activity (viability relative to untreated control), JAWSII: No significant difference was found
[1]
  percent of killing of E. coli: 74.4%
[2]
  percent of killing of S. Typhimurium: 47.3%
[3]
  percent of killing of P. aeruginosa: 35.5%
[4]
  percent of killing of S. aureus: 52.9%
[5]
  MIC-ls S. Typhimurium (ATCC 14028): 128 µg/mL
  MIC S. Typhimurium (ATCC 14028): >256 µg/mL
  MBC-ls S. Typhimurium (ATCC 14028): 256 µg/mL
[6]
  MIC-ls P. aeruginosa (ATCC 27853): 128 µg/mL
  MIC P. aeruginosa (ATCC 27853): >256 µg/mL
  MBC-ls P. aeruginosa (ATCC 27853): >256 µg/mL
S. aureus (ATCC 29213)
  MIC-ls S. aureus (ATCC 29213): 256 µg/mL
  MIC S. aureus (ATCC 29213): >256 µg/mL
  MBC-ls S. aureus (ATCC 29213): 256 µg/mL
HD11 cells
  metabolic activity (viability relative to untreated control), HD11: No significant difference was found
MQ-NCSU cells
  metabolic activity (viability relative to untreated control), MQ-NCSU: No significant difference was found
E. coli (ATCC 25922)
  MIC-ls E. coli (ATCC 25922): 32 µg/mL
  MIC E. coli (ATCC 25922): 256 µg/mL
  MBC-ls E. coli (ATCC 25922): 128 µg/mL
[7]
  cytotoxicity to avian and mammalian cell lines: non-cytotoxic
CHO-K1 cells
  metabolic activity (viability relative to untreated control), CHO-K1: No significant difference was found

## GPDSC^1NHDRGLC^2RVGNC^3NPGEYLAKYC^4FEPVILC^5C^6VRNRWA (bicyclic or more) [AvBD-12/6, group 3 hybrid peptide: backbone of AvBD-12 with amino acid residues of AvBD-6]
[8]
  chemotactic activity for JAWSII cells (in words): retained the chemotactic function
[5]
  MIC-ls S. Typhimurium (ATCC 14028): 16 µg/mL
  MIC S. Typhimurium (ATCC 14028): >256 µg/mL
  MBC-ls S. Typhimurium (ATCC 14028): 64 µg/mL
[6]
  MIC-ls P. aeruginosa (ATCC 27853): 64 µg/mL
  MIC P. aeruginosa (ATCC 27853): >256 µg/mL
  MBC-ls P. aeruginosa (ATCC 27853): 256 µg/mL
S. aureus (ATCC 29213)
  MIC-ls S. aureus (ATCC 29213): 256 µg/mL
  MIC S. aureus (ATCC 29213): 256 µg/mL
  MBC-ls S. aureus (ATCC 29213): 256 µg/mL
E. coli (ATCC 25922)
  MIC-ls E. coli (ATCC 25922): 8 µg/mL
  MIC E. coli (ATCC 25922): 256 µg/mL
  MBC-ls E. coli (ATCC 25922): 32 µg/mL
CHO-K1 cells
  metabolic activity (viability relative to untreated control), CHO-K1: No significant difference was found
